Tests used:
[1] = system: T-cell; test: CD25 cell surface staining on T-cells stimulated with anti-CD3 antibody alone (Biological Example 2); type: cell-based, human; conditions: Homo sapiens, T-cell; 1 μM Cbl-b inhibitor; fold change over baseline (anti-CD3/anti-CD28 stimulated T-cells without inhibitor); read-out: CD25 staining Anti-CD3 stimulation
[2] = system: T-cell; test: CD25 cell surface staining on T-cells co-stimulated with anti-CD3 and anti-CD28 antibody (Biological Example 2); type: cell-based, human; conditions: Homo sapiens, T-cell, fold change over baseline (anti-CD3/anti-CD28 stimulated T-cells without inhibitor), read-out: CD25 staining Anti-CD3/Anti-CD28 stimulation; for fold induction at 0.3 µM: 0.3 μM Cbl-b inhibitor; for fold induction at 1 µM: 1 μM Cbl-b inhibitor
Procedure, shortened: (§1)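 Values are fold-change over baseline: readings (IL-2 release, CD25 staining) from inhibitor-treated T-cells divided against untreated cells […]. No detailed procedure stated.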

[3] = target: T1, Cbl-b (Homo sapiens, UniProt Q13191); test: Cbl-b activity assay (Cbl-b inhibition assay), TR-FRET of Cbl-b interaction with UbcH5B-Ub; type: biochemical; conditions: assay buffer with 100 mM NaCl, 60 nM Src kinase; read-out: Cbl-b activity IC50
T1 sequence (Q13191 36-427): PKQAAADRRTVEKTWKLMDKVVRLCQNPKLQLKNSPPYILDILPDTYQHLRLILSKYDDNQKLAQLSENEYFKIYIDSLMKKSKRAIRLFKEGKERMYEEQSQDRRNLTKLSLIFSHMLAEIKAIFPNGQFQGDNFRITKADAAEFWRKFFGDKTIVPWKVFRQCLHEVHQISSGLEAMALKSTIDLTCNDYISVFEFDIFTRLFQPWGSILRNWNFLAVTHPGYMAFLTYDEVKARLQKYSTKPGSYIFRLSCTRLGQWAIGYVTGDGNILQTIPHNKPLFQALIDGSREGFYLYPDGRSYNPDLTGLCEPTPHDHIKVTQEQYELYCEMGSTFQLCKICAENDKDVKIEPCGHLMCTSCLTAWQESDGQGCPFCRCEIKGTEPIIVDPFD
Procedure, shortened: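 Compound-treated Cbl-b was incubated 1.5 h with Src kinase (60 nM final; 30 nM for asterisked values, which also used 50 mM instead of 100 mM NaCl), 1 mM ATP and 5 mM MgCl2. Binding to fluorescent Ub-loaded UbcH5B (C85K mutant) was then read by TR-FRET after 1 h more.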

[4] = target: T1, Cbl-b; test: Cbl-b inhibition assay (Cbl-b activity assay, FRET, Biological Example 1; 100 mM NaCl, 60 nM Src kinase); type: biochemical; conditions: upper bound stated in text lists; read-out: IC50 values in the Cbl-b inhibition assay of Biological Example 1
Procedure, shortened: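 FRET read-out: loss of signal marks inhibition. Mix = biotin-Avi-Cbl-b (N-term), Src kinase, UbcH5B-Ub(Bodipy-FL, irreversible conjugate), streptavidin-Tb, assay buffer.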

[5] = system: T-cell; test: IL-2 secretion from T-cells stimulated with anti-CD3 antibody alone (Biological Example 2); type: cell-based, human; conditions: Homo sapiens, T-cell; 1 μM Cbl-b inhibitor; fold change over baseline (anti-CD3/anti-CD28 stimulated T-cells without inhibitor); read-out: IL-2 secretion Anti-CD3 stimulation
[6] = system: T-cell; test: IL-2 secretion from T-cells co-stimulated with anti-CD3 and anti-CD28 antibody (Biological Example 2); type: cell-based, human; conditions: Homo sapiens, T-cell, fold change over baseline (anti-CD3/anti-CD28 stimulated T-cells without inhibitor), read-out: IL-2 secretion Anti-CD3/Anti-CD28 stimulation; for fold induction at 0.3 µM: 0.3 μM Cbl-b inhibitor; for fold induction at 1 µM: 1 μM Cbl-b inhibitor
Procedure, shortened: as §1

Row | SMILES | fold induction at 1 µM [1] | fold induction at 0.3 µM [2] | fold induction at 1 µM [2] | IC50 [3] [nM] | IC50 [4] [nM] | fold induction at 1 µM [5] | fold induction at 0.3 µM [6] | fold induction at 1 µM [6]
1 | CCOC1CCCN(Cc2cc3c(c(C(F)(F)F)c2)CN(c2cccc(C4(Cc5nncn5C)COC4)c2)C3=O)C1 (stereo not shown) [Example 629, 6-((3-ethoxypiperidin-1-yl)methyl)-2-(3-(3-((4-methyl-4H-1,2,4-triazol-3-yl)methyl)oxetan-3-yl)phenyl)-4-(trifluoromethyl)isoindolin-1-one] | > 1 | 1.51 to 1.75 | 1.51 to 1.75 | < 100 | ≤ 100 | > 0.201 | > 7.5 | > 7.5
2 | COC1CCN(Cc2cc3c(c(C(F)(F)F)c2)CN(c2cccc(C4(Cc5nncn5C)COC4)c2)C3=O)CC1 [Example 632, 6-((4-methoxypiperidin-1-yl)methyl)-2-(3-(3-((4-methyl-4H-1,2,4-triazol-3-yl)methyl)oxetan-3-yl)phenyl)-4-(trifluoromethyl)isoindolin-1-one] | > 1 | 1.31 to 1.5 | 1.51 to 1.75 | < 100 | ≤ 100 | > 0.201 | > 7.5 | > 7.5
3 | Cn1cnnc1CC1(c2cccc(N3Cc4c(cc(CN5CCC(F)(F)CC5)cc4C(F)(F)F)C3=O)c2)COC1 [Example 633, 6-((4,4-difluoropiperidin-1-yl)methyl)-2-(3-(3-((4-methyl-4H-1,2,4-triazol-3-yl)methyl)oxetan-3-yl)phenyl)-4-(trifluoromethyl)isoindolin-1-one] | > 1 | 1.31 to 1.5 | 1.31 to 1.5 | < 100 | ≤ 100 | > 0.201 | > 7.5 | > 7.5
4 | CC1CCN(Cc2cc3c(c(C(F)(F)F)c2)CN(c2cccc(C4(Cc5nncn5C)COC4)c2)C3=O)CC1(F)F (stereo not shown) [Example 635, 6-((3,3-difluoro-4-methylpiperidin-1-yl)methyl)-2-(3-(3-((4-methyl-4H-1,2,4-triazol-3-yl)methyl)oxetan-3-yl)phenyl)-4-(trifluoromethyl)isoindolin-1-one] | > 1 | 1.31 to 1.5 | 1.31 to 1.5 | < 100 | ≤ 100 | > 0.201 | > 7.5 | > 7.5
5 | Cn1cnnc1CC1(c2cccc(N3Cc4c(cc(CN5CCC6(CC6)C(F)(F)C5)cc4C(F)(F)F)C3=O)c2)COC1 [Example 636, 6-((4,4-difluoro-6-azaspiro[2.5]octan-6-yl)methyl)-2-(3-(3-((4-methyl-4H-1,2,4-triazol-3-yl)methyl)oxetan-3-yl)phenyl)-4-(trifluoromethyl)isoindolin-1-one] | > 1 | 1.31 to 1.5 | 1.31 to 1.5 | < 100 | ≤ 100 | > 0.201 | 2.51 to 5 | > 7.5
6 | COC1CCCN(Cc2cc3c(c(C(F)(F)F)c2)CN(c2cccc(C4(Cc5nncn5C)COC4)c2)C3=O)C1 (stereo not shown) [Example 637, 6-((3-methoxypiperidin-1-yl)methyl)-2-(3-(3-((4-methyl-4H-1,2,4-triazol-3-yl)methyl)oxetan-3-yl)phenyl)-4-(trifluoromethyl)isoindolin-1-one] | > 1 | 1.31 to 1.5 | 1.51 to 1.75 | < 100 | ≤ 100 | > 0.201 | > 7.5 | > 7.5
7 | Cn1cnnc1CC1(c2cccc(N3Cc4c(cc(CN5CCC6(CC5)CC6)cc4C(F)(F)F)C3=O)c2)COC1 [Example 641, 6-((6-azaspiro[2.5]octan-6-yl)methyl)-2-(3-(3-((4-methyl-4H-1,2,4-triazol-3-yl)methyl)oxetan-3-yl)phenyl)-4-(trifluoromethyl)isoindolin-1-one] | > 1 | 1.51 to 1.75 | 1.51 to 1.75 | < 100 | ≤ 100 | > 0.201 | > 7.5 | > 7.5
8 | Cn1cnnc1CC1(c2cccc(N3Cc4c(cc(CN5CCC(C)(C#N)CC5)cc4C(F)(F)F)C3=O)c2)COC1 [Example 642, 4-methyl-1-((2-(3-(3-((4-methyl-4H-1,2,4-triazol-3-yl)methyl)oxetan-3-yl)phenyl)-3-oxo-7-(trifluoromethyl)isoindolin-5-yl)methyl)piperidine-4-carbonitrile] | > 1 | 1.31 to 1.5 | 1.31 to 1.5 | < 100 | ≤ 100 | 0.151 to 0.2 | > 7.5 | > 7.5
9 | Cn1cnnc1CC1(c2cccc(N3Cc4c(cc(CN5CCC(C(F)F)CC5)cc4C(F)(F)F)C3=O)c2)COC1 [Example 643, 6-((4-(difluoromethyl)piperidin-1-yl)methyl)-2-(3-(3-((4-methyl-4H-1,2,4-triazol-3-yl)methyl)oxetan-3-yl)phenyl)-4-(trifluoromethyl)isoindolin-1-one] | > 1 | 1.31 to 1.5 | 1.31 to 1.5 | < 100 | ≤ 100 | 0.151 to 0.2 | 5 to 7.5 | > 7.5
10 | Cn1cnnc1CC1(c2cccc(N3Cc4c(cc(CN5CCC6CC6C5)cc4C(F)(F)F)C3=O)c2)COC1 (stereo not shown) [Example 646, 6-((3-azabicyclo[4.1.0]heptan-3-yl)methyl)-2-(3-(3-((4-methyl-4H-1,2,4-triazol-3-yl)methyl)oxetan-3-yl)phenyl)-4-(trifluoromethyl)isoindolin-1-one] | > 1 | 1.31 to 1.5 | 1.31 to 1.5 | < 100 | ≤ 100 | > 0.201 | > 7.5 | > 7.5
11 | Cc1nc2c(o1)CCN(Cc1cc3c(c(C(F)(F)F)c1)CN(c1cccc(C4(Cc5nncn5C)COC4)c1)C3=O)C2 [Example 649, 2-(3-(3-((4-methyl-4H-1,2,4-triazol-3-yl)methyl)oxetan-3-yl)phenyl)-6-((2-methyl-6,7-dihydrooxazolo[4,5-c]pyridin-5(4H)-yl)methyl)-4-(trifluoromethyl)isoindolin-1-one] | > 1 | 1.01 to 1.3 | 1.31 to 1.5 | < 100 | ≤ 100 | > 0.201 | 5 to 7.5 | > 7.5
12 | Cn1cnnc1CC1(c2cccc(N3Cc4c(cc(CN5CCc6ccccc6C5)cc4C(F)(F)F)C3=O)c2)COC1 [Example 650, 6-((3,4-dihydroisoquinolin-2(1H)-yl)methyl)-2-(3-(3-((4-methyl-4H-1,2,4-triazol-3-yl)methyl)oxetan-3-yl)phenyl)-4-(trifluoromethyl)isoindolin-1-one] | > 1 | 1.01 to 1.3 | 1.31 to 1.5 | < 100 | ≤ 100 | > 0.201 | 5 to 7.5 | > 7.5
13 | Cn1cnnc1CC1(c2cccc(N3Cc4c(cc(CN5CCCc6c5cnn6C)cc4C(F)(F)F)C3=O)c2)COC1 [Example 651] | > 1 | 1.01 to 1.3 | 1.01 to 1.3 | < 100 | ≤ 100 | > 0.201 | 5 to 7.5 | > 7.5
14 | Cn1cnnc1CC1(c2cccc(N3Cc4c(cc(CN5Cc6cccc(F)c6C5)cc4C(F)(F)F)C3=O)c2)COC1 [Example 653, 6-((4-fluoroisoindolin-2-yl)methyl)-2-(3-(3-((4-methyl-4H-1,2,4-triazol-3-yl)methyl)oxetan-3-yl)phenyl)-4-(trifluoromethyl)isoindolin-1-one] | > 1 | 1.31 to 1.5 | 1.31 to 1.5 | < 100 | ≤ 100 | > 0.201 | 2.51 to 5 | > 7.5
